Earlier results on 14 compounds are cited in patent US8598145B2, “Mitochondrially delivered anti-cancer compounds” (priority 2008, dated 2013).

SMILES strings stand for the structures.

Data set [1] deals with Jurkat, HBT11, MCF7, MCF7-C3. To be noted: Table II; cited from earlier work.
The next data set deals with B16-F1/ nude mice. The settings on record: Kogure et al 2005; cited from earlier work.
A further data set has as its system Jurkat, U937, Meso-2. To be noted: cited from earlier work.
Another data set deals with MCF7. The settings on record: Arya et al; cited from earlier work.
Another data set has as its system MDA-MB-435, MCF7. To be noted: cited from earlier work.
Another data set concerns NB4, HT93. The settings on record: cited from earlier work.
The test system of data set [2] is Jurkat, HBT1, MCF7, MCF7-C3, U937, Meso-2. To be noted: cited from earlier work.

Consider `Cc1c(C)c2c(c(C)c1OC(=O)C=CC(=O)O)CCC(C)(CCCC(C)CCCC(C)CCCC(C)C)O2` (centres unmarked) [Nr 3], for which the IC50 in data set [1] was 22 µM.

Consider `Cc1c(C)c2c(c(C)c1OC(=O)C(=O)O)CCC(C)(CCCC(C)CCCC(C)CCCC(C)C)O2` (centres unmarked) [Nr 10], for which the “cytotoxicity in mice inoculated with B16-F1 melanoma cells” value with B16-F1/ nude mice is listed as “non-selective cytotoxicity”.

On to `Cc1c(C)c2c(c(C)c1OC(=O)CC(=O)O)CCC(C)(CCCC(C)CCCC(C)CCCC(C)C)O2` (centres unmarked) [Nr 11], for which the “cytotoxicity in mice inoculated with B16-F1 melanoma cells” value with B16-F1/ nude mice is listed as “non-selective cytotoxicity”.

With `Cc1c(C)c2c(c(C)c1NC(=O)CCC(=O)O)CCC(C)(CCCC(C)CCCC(C)CCCC(C)C)O2` (centres unmarked) [Nr 12], the IC50 with Jurkat, U937, Meso-2 was 13 µM.

As to `Cc1c(C)c2c(c(C)c1NC(=O)C=CC(=O)O)CCC(C)(CCCC(C)CCCC(C)CCCC(C)C)O2` (centres unmarked) [Nr 13], the IC50 in the data set with Jurkat, U937, Meso-2 was 2 µM.

`COC(=O)CCC(=O)Nc1c(C)c(C)c2c(c1C)CCC(C)(CCCC(C)CCCC(C)CCCC(C)C)O2` (centres unmarked) [Nr 14]: the IC50 in the data set with Jurkat, U937, Meso-2 was more than 100 µM.

Consider `Cc1c(C)c2c(c(C)c1OC(=O)C(N)CCCCN)CCC(C)(CCCC(C)CCCC(C)CCCC(C)C)O2` (centres unmarked) [Nr 16], for which, in the data set on MCF7, the IC50 was 12 µM.

As for `Cc1c(C)c2c(c(C)c1OCC(=O)O)CCC(C)(CCCC(C)CCCC(C)CCCC(C)C)O2` (centres unmarked) [Nr 21], in the data set on MDA-MB-435, MCF7, the “EC50” value is 15 to 20 mg/L.

Turning to `CC1=C(/C=C/C(C)=C/C=C/C(C)=C/C(=O)Oc2c(C)c(C)c3c(c2C)CCC(C)(CCCC(C)CCCC(C)CCCC(C)C)O3)C(C)(C)CCC1` (centres unmarked) [Nr 28], in the data set on NB4, HT93, the IC50 was 0.1 to 1 µM.

Turning to `Cc1cc(OC(=O)CCC(=O)O)c(C)c2c1OC(C)(CCCC(C)CCCC(C)CCCC(C)C)CC2` (centres unmarked) [Nr 32], the “IC50, printed relative to α-TOS” value in data set [2] is listed as 50% of α-TOS.

With `Cc1cc(OC(=O)CCC(=O)O)cc2c1OC(C)(CCCC(C)CCCC(C)CCCC(C)C)CC2` (centres unmarked) [Nr 35], the IC50 in data set [1] was 66 µM.

For `Cc1cc(OC(=O)C=CC(=O)O)cc2c1OC(C)(CCCC(C)CCCC(C)CCCC(C)C)CC2` (centres unmarked) [Nr 36], the IC50 in data set [1] was 49 µM.

As for `Cc1cc(NC(=O)CCC(=O)O)cc2c1OC(C)(CCCC(C)CCCC(C)CCCC(C)C)CC2` (centres unmarked) [Nr 37], the IC50 in the data set on Jurkat, U937, Meso-2 was 20 µM.

Consider `Cc1cc(NC(=O)C=CC(=O)O)cc2c1OC(C)(CCCC(C)CCCC(C)CCCC(C)C)CC2` (centres unmarked) [Nr 38], for which the IC50 in the data set on Jurkat, U937, Meso-2 was 9 µM.
